This note sets out measurements from publication PMC8238522 (Biochemical Journal, 2021).

Common to all, as to test: spectrophotometric NADH formation at […] nm, Hill fit
Type in all cases: biochemical

The target in one experiment is T1, AmtriPGDH1 (Amborella trichopoda, UniProt U5D351).
T1 sequence (U5D351 73-618): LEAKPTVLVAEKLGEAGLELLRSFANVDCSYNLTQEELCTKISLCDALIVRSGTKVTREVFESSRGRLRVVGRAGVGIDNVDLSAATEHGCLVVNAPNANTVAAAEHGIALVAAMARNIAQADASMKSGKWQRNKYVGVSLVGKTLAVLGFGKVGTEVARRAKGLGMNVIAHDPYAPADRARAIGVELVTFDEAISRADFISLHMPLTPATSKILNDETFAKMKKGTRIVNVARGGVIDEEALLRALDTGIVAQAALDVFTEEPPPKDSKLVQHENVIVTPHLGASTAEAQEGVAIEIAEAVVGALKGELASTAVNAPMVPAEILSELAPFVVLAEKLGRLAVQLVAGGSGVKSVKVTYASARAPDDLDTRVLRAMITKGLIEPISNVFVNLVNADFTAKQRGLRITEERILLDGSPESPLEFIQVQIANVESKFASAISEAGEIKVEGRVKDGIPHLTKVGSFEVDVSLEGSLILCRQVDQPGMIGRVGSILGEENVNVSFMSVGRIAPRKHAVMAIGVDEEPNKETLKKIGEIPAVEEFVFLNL

The target of another experiment is T2, OsPGDH1 (Oryza sativa, UniProt B7F6I8).
T2 sequence (B7F6I8 68-613): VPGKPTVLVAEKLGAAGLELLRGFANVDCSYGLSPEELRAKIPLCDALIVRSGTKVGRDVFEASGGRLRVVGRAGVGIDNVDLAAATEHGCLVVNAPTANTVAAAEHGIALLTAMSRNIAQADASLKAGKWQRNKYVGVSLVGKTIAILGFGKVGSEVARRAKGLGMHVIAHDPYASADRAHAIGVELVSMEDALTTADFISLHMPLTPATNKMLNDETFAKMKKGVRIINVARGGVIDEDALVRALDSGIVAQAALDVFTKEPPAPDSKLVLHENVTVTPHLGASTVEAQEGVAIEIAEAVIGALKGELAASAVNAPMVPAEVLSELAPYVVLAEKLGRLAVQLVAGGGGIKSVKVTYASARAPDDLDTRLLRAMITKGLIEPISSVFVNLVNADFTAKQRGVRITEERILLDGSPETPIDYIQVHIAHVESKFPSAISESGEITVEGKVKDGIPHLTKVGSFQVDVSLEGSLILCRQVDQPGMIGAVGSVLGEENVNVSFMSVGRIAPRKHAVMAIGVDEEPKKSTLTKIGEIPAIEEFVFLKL

A further experiment addresses T3, OsPGDH2 (Oryza sativa, UniProt B7FAD2).
T3 sequence (B7FAD2 64-621): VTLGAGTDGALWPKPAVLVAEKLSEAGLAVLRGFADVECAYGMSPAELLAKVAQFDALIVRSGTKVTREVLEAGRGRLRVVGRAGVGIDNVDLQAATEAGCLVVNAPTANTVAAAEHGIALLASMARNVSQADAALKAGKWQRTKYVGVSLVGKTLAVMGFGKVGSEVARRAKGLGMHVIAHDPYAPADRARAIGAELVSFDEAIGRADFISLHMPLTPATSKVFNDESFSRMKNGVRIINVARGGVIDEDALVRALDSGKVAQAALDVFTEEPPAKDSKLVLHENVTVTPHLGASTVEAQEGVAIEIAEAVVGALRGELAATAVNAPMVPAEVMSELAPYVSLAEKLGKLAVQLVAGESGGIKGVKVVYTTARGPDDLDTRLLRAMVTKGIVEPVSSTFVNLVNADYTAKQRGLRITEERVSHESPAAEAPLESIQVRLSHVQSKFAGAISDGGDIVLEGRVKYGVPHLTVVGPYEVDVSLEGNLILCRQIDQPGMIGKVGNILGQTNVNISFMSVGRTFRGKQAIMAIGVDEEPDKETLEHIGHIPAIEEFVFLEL

As for `N[C@@H](CO)C(=O)O` [L-Serine], the EC50 stood at 1200 ± 100 µM on AmtriPGDH1 and 6400 ± 600 µM on OsPGDH1.
`N[C@@H](CCS)C(=O)O` [L-Homocysteine]: the concentration giving a half-maximal response (EC50) on AmtriPGDH1 stood at 20 ± 2 µM; at OsPGDH1, 33 ± 3 µM.
Regarding `CSCC[C@H](N)C(=O)O` [L-Methionine], the results for the half-maximal effective concentration (EC50) at AmtriPGDH1 and at OsPGDH1 were 750 ± 50 µM and 640 ± 30 µM, respectively.
As for `C[C@H](N)C(=O)O` [L-Alanine], the response on OsPGDH2 was half-maximal at 950 ± 40 µM (EC50).
